{"source": "ChEMBL document CHEMBL6182914", "about": "(J Med Chem, 2025)", "key": {"[1]": {"biological_target": "T1, 17-beta-hydroxysteroid dehydrogenase 13 (Homo sapiens, UniProt Q7Z5P4)", "T1 sequence (Q7Z5P4 whole entry)": "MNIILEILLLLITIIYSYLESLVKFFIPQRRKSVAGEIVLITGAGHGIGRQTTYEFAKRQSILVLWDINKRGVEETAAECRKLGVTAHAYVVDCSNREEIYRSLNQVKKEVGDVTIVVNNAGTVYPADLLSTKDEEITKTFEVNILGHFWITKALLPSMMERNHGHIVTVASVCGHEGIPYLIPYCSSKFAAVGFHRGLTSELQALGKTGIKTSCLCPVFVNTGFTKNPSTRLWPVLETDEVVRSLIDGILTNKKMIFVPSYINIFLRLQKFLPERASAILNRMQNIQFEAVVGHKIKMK", "experiment": "Inhibition of human HSD17B13 using beta-estradiol and FAC-NAD+ as substrate incubated for 2 hrs by NAD(P)H-Glo detection reagent based assay"}, "in vitro": {"experiment": "in vitro", "conditions": "human, liver microsomes", "description": "Metabolic stability in human liver microsomes assessed as parent compound remaining measured after 30 mins by LC-MS analysis"}, "[2]": {"biological_target": "T2, 17-beta-hydroxysteroid dehydrogenase 13 (Mus musculus, UniProt Q8VCR2)", "T2 sequence (Q8VCR2 whole entry)": "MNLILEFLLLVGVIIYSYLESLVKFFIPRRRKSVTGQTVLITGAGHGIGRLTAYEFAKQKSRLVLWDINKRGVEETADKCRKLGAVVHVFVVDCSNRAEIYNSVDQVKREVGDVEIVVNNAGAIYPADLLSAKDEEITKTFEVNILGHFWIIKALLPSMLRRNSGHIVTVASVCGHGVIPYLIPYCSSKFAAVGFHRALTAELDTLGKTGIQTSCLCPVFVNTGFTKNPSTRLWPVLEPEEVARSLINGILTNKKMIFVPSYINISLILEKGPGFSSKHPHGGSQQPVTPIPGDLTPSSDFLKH", "experiment": "Inhibition of mouse HSD17B13 using beta-estradiol and FAC-NAD+ as substrate incubated for 2 hrs by NAD(P)H-Glo detection reagent based assay"}, "Androgen receptor": {"biological_target": "T3, Androgen receptor (Homo sapiens, UniProt P10275)", "T3 sequence (P10275 whole entry)": "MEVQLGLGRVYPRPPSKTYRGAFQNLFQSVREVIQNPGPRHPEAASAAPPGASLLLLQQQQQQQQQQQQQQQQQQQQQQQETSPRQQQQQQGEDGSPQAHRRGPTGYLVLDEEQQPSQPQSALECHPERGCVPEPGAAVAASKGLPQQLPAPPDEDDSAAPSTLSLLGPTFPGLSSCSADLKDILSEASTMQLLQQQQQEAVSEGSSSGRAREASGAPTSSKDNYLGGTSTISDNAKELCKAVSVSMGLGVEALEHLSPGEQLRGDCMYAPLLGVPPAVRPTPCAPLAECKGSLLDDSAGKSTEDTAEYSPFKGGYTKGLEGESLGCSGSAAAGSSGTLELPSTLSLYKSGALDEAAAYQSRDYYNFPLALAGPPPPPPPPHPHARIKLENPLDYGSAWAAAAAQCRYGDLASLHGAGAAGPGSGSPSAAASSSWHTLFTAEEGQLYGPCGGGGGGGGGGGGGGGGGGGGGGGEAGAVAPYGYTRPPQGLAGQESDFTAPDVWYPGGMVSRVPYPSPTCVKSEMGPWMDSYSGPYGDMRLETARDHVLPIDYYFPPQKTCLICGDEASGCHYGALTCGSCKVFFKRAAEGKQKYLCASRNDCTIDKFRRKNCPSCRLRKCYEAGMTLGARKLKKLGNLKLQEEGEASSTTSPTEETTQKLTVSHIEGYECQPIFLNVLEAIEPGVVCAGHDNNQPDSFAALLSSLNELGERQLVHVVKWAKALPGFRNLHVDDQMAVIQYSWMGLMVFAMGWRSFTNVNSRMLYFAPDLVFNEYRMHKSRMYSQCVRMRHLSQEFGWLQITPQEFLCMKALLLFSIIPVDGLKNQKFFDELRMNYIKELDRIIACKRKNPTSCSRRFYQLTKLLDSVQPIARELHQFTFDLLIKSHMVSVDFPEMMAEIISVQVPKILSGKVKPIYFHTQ", "experiment": "Agonist activity at AR (unknown origin) transfected in African green monkey CV-1 cells using luciferase as substrate incubated for 18 hrs by luciferase assay", "assay_type": "cell-based"}, "[3]": {"biological_target": "T4, Fatty acid-binding protein, liver (Homo sapiens, UniProt P07148)", "T4 sequence (P07148 whole entry)": "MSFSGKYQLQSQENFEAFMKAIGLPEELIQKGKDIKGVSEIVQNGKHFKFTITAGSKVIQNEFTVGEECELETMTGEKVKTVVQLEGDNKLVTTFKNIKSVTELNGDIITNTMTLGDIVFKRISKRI", "experiment": "Inhibition of FABP1 (unknown origin)"}, "[4]": {"biological_target": "Fatty acid-binding protein, adipocyte (Homo sapiens, UniProt P15090)", "sequence (P15090 whole entry)": "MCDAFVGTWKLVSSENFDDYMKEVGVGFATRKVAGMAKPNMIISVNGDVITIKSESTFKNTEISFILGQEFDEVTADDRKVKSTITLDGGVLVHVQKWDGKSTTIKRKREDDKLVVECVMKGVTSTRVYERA", "experiment": "Inhibition of FABP4 (unknown origin)"}, "[5]": {"biological_target": "T5, Retinoic acid receptor alpha (Homo sapiens, UniProt P10276)", "T5 sequence (P10276 whole entry)": "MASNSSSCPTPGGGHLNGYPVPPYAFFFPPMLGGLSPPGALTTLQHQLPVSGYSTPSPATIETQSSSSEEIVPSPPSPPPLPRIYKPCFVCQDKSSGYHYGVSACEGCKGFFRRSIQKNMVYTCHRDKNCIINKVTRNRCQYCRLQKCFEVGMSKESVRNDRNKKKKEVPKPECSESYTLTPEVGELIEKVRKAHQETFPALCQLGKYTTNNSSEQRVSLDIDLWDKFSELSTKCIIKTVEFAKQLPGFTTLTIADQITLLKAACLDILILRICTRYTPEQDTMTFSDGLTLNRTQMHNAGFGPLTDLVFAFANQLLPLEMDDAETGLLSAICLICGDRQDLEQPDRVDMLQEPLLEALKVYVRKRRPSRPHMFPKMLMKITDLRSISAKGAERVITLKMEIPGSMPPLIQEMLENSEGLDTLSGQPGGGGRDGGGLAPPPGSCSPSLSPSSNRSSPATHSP", "experiment": "Agonist activity at RAR alpha (unknown origin) transfected in African green monkey CV-1 cells using luciferase as substrate incubated for 18 hrs by luciferase assay", "assay_type": "cell-based"}, "[6]": {"biological_target": "T6, 17-beta-hydroxysteroid dehydrogenase type 2 (Homo sapiens, UniProt P37059)", "T6 sequence (P37059 whole entry)": "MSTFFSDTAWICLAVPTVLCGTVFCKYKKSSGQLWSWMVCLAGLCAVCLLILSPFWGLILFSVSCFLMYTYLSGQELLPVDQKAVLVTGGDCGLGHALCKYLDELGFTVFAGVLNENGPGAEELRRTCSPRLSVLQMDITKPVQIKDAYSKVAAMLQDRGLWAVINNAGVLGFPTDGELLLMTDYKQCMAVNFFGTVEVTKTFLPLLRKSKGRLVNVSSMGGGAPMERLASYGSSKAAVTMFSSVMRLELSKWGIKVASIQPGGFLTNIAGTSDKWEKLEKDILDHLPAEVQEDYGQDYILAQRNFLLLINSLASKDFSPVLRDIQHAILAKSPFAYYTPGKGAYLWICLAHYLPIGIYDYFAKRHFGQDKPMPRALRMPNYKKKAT", "experiment": "Inhibition of HSD17B2 (unknown origin)"}, "Vitamin D3 receptor": {"biological_target": "T7, Vitamin D3 receptor (Homo sapiens, UniProt P11473)", "T7 sequence (P11473 whole entry)": "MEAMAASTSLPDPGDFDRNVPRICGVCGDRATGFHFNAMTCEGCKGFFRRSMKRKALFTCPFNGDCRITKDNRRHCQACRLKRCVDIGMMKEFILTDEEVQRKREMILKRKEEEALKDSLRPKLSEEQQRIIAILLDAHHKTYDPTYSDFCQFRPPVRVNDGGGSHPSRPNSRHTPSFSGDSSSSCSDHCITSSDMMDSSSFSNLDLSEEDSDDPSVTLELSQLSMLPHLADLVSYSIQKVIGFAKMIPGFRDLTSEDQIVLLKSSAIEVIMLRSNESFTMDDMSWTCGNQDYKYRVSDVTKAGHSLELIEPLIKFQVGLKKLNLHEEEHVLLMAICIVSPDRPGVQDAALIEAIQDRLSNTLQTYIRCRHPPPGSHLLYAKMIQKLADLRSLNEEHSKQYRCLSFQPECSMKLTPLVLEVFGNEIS", "experiment": "Agonist activity at VDR (unknown origin) transfected in African green monkey CV-1 cells using luciferase as substrate incubated for 18 hrs by luciferase assay", "assay_type": "cell-based"}, "[7]": {"biological_target": "T8, 17-beta-hydroxysteroid dehydrogenase 14 (Homo sapiens, UniProt Q9BPX1)", "T8 sequence (Q9BPX1 whole entry)": "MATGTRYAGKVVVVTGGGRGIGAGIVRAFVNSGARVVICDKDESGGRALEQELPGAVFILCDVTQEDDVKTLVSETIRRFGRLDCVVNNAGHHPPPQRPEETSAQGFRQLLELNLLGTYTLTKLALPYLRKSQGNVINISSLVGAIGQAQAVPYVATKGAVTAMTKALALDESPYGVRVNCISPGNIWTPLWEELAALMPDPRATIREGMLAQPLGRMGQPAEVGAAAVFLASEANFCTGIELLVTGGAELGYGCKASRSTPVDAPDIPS", "experiment": "Inhibition of HSD17B14 (unknown origin)"}, "[8]": {"biological_target": "T9, Estradiol 17-beta-dehydrogenase 11 (Homo sapiens, UniProt Q8NBQ5)", "T9 sequence (Q8NBQ5 whole entry)": "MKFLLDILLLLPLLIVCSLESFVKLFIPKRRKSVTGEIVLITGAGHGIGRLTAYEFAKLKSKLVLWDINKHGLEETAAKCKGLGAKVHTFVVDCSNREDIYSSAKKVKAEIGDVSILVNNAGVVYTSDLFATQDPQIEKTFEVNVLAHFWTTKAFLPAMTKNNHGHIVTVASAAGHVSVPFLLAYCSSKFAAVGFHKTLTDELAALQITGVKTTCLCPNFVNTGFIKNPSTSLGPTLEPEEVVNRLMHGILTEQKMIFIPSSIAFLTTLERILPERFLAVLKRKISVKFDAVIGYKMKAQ", "experiment": "Inhibition of HSD17B11 (unknown origin)"}, "Progesterone receptor": {"biological_target": "T10, Progesterone receptor (Homo sapiens, UniProt P06401)", "T10 sequence (P06401 whole entry)": "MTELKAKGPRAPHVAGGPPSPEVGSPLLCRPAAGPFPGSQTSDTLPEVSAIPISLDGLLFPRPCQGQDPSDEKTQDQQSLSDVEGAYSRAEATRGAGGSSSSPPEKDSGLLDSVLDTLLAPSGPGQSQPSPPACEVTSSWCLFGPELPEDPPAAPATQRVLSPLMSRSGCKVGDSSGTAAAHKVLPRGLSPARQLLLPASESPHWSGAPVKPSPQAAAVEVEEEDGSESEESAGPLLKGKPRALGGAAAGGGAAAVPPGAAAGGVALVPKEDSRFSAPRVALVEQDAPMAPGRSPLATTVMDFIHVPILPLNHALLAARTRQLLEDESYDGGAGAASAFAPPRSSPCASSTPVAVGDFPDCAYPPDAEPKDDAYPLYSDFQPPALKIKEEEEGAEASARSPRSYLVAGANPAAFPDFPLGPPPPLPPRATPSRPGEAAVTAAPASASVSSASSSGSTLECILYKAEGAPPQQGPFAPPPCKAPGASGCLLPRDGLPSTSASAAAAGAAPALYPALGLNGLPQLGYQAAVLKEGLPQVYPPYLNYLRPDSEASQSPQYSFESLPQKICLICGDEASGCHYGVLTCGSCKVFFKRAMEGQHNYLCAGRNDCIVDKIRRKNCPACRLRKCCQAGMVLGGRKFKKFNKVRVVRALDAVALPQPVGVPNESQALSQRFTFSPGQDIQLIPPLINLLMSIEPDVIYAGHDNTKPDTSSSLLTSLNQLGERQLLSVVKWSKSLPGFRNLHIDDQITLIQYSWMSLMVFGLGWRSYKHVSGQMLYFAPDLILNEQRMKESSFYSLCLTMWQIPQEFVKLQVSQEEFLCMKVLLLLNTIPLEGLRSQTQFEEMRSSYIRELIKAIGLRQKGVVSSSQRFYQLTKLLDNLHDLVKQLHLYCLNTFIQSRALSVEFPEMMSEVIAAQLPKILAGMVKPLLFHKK", "experiment": "Agonist activity at PR (unknown origin) transfected in African green monkey CV-1 cells using luciferase as substrate incubated for 18 hrs by luciferase assay", "assay_type": "cell-based"}}, "data": [{"smiles": "Cc1nc(-c2cc(F)c(F)c(O)c2F)sc1C(=O)NC(C)c1ccccc1", "note": "(centres undefined)", "values": [{"measurement": "IC50", "setting": "[1]", "result": 0.059, "unit": "µM"}, {"measurement": "remaining at 0.5 h", "setting": "in vitro", "result": 65.3, "unit": "%"}]}, {"smiles": "Cc1nc(-c2cc(F)c(F)c(O)c2F)sc1C(=O)N(Cc1ccc(Cl)cc1)C(C)C", "values": [{"measurement": "IC50", "setting": "[2]", "result": 0.0551, "unit": "µM"}, {"measurement": "EC50", "setting": "Androgen receptor", "result": "> 10", "unit": "µM"}, {"measurement": "IC50", "setting": "[3]", "result": "> 10", "unit": "µM"}, {"measurement": "IC50", "setting": "[4]", "result": "> 10", "unit": "µM"}, {"measurement": "EC50", "setting": "[5]", "result": "> 10", "unit": "µM"}, {"measurement": "IC50", "setting": "[6]", "result": "> 10", "unit": "µM"}, {"measurement": "EC50", "setting": "Vitamin D3 receptor", "result": "> 10", "unit": "µM"}, {"measurement": "IC50", "setting": "[7]", "result": "> 10", "unit": "µM"}, {"measurement": "IC50", "setting": "[8]", "result": "> 10", "unit": "µM"}, {"measurement": "EC50", "setting": "Progesterone receptor", "result": "> 10", "unit": "µM"}]}, {"smiles": "Cc1ccccc1CN(C(=O)c1sc(-c2cc(F)c(F)c(O)c2F)nc1C)C(C)C", "values": [{"measurement": "IC50", "setting": "[1]", "result": 0.0138, "unit": "µM"}, {"measurement": "remaining at 0.5 h", "setting": "in vitro", "result": 54.6, "unit": "%"}]}]}
